Data: patent US20190298722A1, “USE OF AN INHIBITOR OF THE DE NOVO SYNTHESIS OF PURINES, IN THE TREATMENT OF ADENYLOSUCCINATE LYASE DEFICIENCY” (ASSISTANCE PUBLIQUE-HOPITAUX DE PARIS, priority 2016, published 2019)

System: patients with ADSL deficiency
Assay: Urinary assay of SAICAr and S-Adenosine by HPLC-MS/MS in patients treated with allopurinol
Assay type: in vivo, human
Settings: for urinary SAICAr: three children, allopurinol 200 mg/d
Experimental: SAICAr and S-Ado metabolites in urine were assayed using HPLC-DAD and HPLC coupled with tandem mass spectrometry (HPLC-MS/MS) according to the techniques recently described (Ceballos-Picot et al. 2015; Zikanova et al. 2014).
The patients received allopurinol daily by the oral route (200 mg/d).

[1] = patient P1, T2 (6 months) vs T1
[2] = patient P1, T3 (12 months) vs T1
[3] = patient P2, T2 (6 months) vs T1
[4] = patient P2, T3 (12 months) vs T1
[5] = patient P3, T2 (6 months) vs T1
[6] = patient P3, T3 (12 months) vs T1

With O=c1ncnc2[nH][nH]cc1-2 [allopurinol, 1,2-dihydro-4H-pyrazolo[3,4-d]pyrimidin-4-one] the “SAICAr, urine” value (patient P1, 6 months (T2) of allopurinol 200 mg/d oral, T1 37.7) was 32.9 μmol/mmol creat, the “S-Adenosine, urine” value (patient P1, 6 months (T2) of allopurinol 200 mg/d oral, before treatment (T1) 55.4) was 51.6 μmol/mmol creat and the “SAICAr, urine” value (patient P1, 12 months (T3) of allopurinol 200 mg/d oral, T1 37.7) was 19.4 μmol/mmol creat. For the same compound, the “S-Adenosine, urine” value (patient P1, 12 months (T3) of allopurinol 200 mg/d oral, T1 55.4) was 36.4 μmol/mmol creat, the “% variation S-Adenosine” value [1] was −6.9% and the “% variation SAICAr” value [1] was −12.7%. The “S-Ado/SAICAr ratio, urine” value (patient P1, T2 (6 months), T1 1.47) was 1.57, the “% variation S-Adenosine” value [2] was −34.3% and the “% variation SAICAr” value [2] was −48.6%. For the same compound, the “S-Ado/SAICAr ratio, urine” value (patient P1, T3 (12 months), T1 1.47) was 1.88, the “SAICAr, urine” value (patient P2, 6 months (T2) of allopurinol 200 mg/d oral, T1 95.4) was 57.9 μmol/mmol creat and the “S-Adenosine, urine” value (patient P2, 6 months (T2) of allopurinol 200 mg/d oral, T1 116.3) was 79.3 μmol/mmol creat. For the same compound, the “SAICAr, urine” value (patient P2, 12 months (T3) of allopurinol 200 mg/d oral, T1 95.4) was 46.8 μmol/mmol creat, the “S-Adenosine, urine” value (patient P2, 12 months (T3) of allopurinol 200 mg/d oral, T1 116.3) was 63.7 μmol/mmol creat and the “% variation S-Adenosine” value [3] was −31.8%. For the same compound, the “% variation SAICAr” value [3] was −39.3%, the “S-Ado/SAICAr ratio, urine” value (patient P2, T2 (6 months), T1 1.22) was 1.37 and the “% variation S-Adenosine” value [4] was −45.2%. The “% variation SAICAr” value [4] was −51.0%, the “S-Ado/SAICAr ratio, urine” value (patient P2, T3 (12 months), T1 1.22) was 1.36 and the “S-Adenosine, urine” value (patient P3, 6 months (T2) of allopurinol 200 mg/d oral, T1 148.6) was 113.3 μmol/mmol creat. The “SAICAr, urine” value (patient P3, 6 months (T2) of allopurinol 200 mg/d oral, T1 167.9) was 96.3 μmol/mmol creat, the “S-Adenosine, urine” value (patient P3, 12 months (T3) of allopurinol 200 mg/d oral, T1 148.6) was 98.2 μmol/mmol creat and the “SAICAr, urine” value (patient P3, 12 months (T3) of allopurinol 200 mg/d oral, T1 167.9) was 72.9 μmol/mmol creat. For the same compound, the “% variation S-Adenosine” value [5] was −23.8%, the “% variation SAICAr” value [5] was −42.7% and the “S-Ado/SAICAr ratio, urine” value (patient P3, T2 (6 months), T1 0.89) was 1.18. For the same compound, the “% variation S-Adenosine” value [6] was −33.9%, the “% variation SAICAr” value [6] was −56.6% and the “S-Ado/SAICAr ratio, urine” value (patient P3, T3 (12 months), T1 0.89) was 1.35. The “urinary SAICAr” value (after 6 and 12 months of treatment) was “significant reduction” and the “urinary SAICAr” value (after 6 months) was “significant reduction”.
